Here are results for five compounds from ChEMBL document CHEMBL3763064, “Discovery of silyl proline containing HCV NS5A inhibitors with pan-genotype activity: SAR development” (Bioorg Med Chem Lett, 2016).

Data set [1] deals with Hepatitis C virus. In words: Antiviral activity against HCV genotype 1a by replicon assay. The format is functional, organism-based, Hepacivirus hominis. To be noted: subtype 1a. (Replicon systems follow genome replication, usually without infectious particles.)
Data set [2] in a line: Half life in iv dosed Sprague-Dawley rat. The format is ADME, organism-based. As to conditions: in vivo.
For data set [3], the system named is Hepatitis C virus. The data set is described as follows: Antiviral activity against HCV genotype 3a by replicon assay. The format is functional, organism-based, Hepacivirus hominis.
The test system of data set [4] is Hepatitis C virus. The data set is described as follows: Antiviral activity against HCV genotype 2a by replicon assay. The format is functional, organism-based, Hepacivirus hominis.
The test system of data set [5] is Hepatitis C virus. The data set is described as follows: Antiviral activity against HCV genotype 1a expressing NS5A Y93H mutant by replicon assay. The format is functional, organism-based, Hepacivirus hominis. As to conditions: subtype 1a.
The subject of another data set is Rattus norvegicus. In words: AUC in Sprague-Dawley rat at 5 mg/kg, po. The format is ADME, organism-based. As to conditions: in vivo.
In data set [6] the test system is Hepatitis C virus. The data set is described as follows: Antiviral activity against HCV genotype 1b by replicon assay. In kind it is functional, organism-based, Hepacivirus hominis.
The subject of data set [7] is Hepatitis C virus. In words: Antiviral activity against HCV genotype 2b by replicon assay. The format is functional, organism-based, Hepacivirus hominis.
Data set [8] deals with T1, Nuclear receptor subfamily 1 group I member 2 (Homo sapiens, UniProt O75469).
T1 sequence (O75469 whole entry): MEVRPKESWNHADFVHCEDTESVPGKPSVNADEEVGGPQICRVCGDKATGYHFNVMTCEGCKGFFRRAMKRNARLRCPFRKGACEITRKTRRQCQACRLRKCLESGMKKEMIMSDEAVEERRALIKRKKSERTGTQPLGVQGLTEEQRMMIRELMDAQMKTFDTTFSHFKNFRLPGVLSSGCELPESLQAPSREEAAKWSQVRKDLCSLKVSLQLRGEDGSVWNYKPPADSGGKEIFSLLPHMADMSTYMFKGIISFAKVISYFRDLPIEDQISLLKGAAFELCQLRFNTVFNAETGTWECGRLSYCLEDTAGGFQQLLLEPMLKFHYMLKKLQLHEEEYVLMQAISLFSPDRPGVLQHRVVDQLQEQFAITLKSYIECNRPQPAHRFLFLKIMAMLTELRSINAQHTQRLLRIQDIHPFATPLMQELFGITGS
The data set is described as follows: Activation of PXR (unknown origin). The format is ADME.

By EC50 is commonly meant the concentration that produces a half-maximal response. Read a high EC50 as weaker potency. One may read the half-life as how long it takes for the measured level to halve. Lower therefore signals fast loss. As to `COC(=O)N[C@H](C(=O)N1CCC[C@H]1c1ncc(-c2ccc(-c3ccc4c(ccc5nc([C@@H]6C[Si](C)(C)CN6C(=O)[C@@H](NC(=O)OC)C(C)C)[nH]c54)c3)cc2)[nH]1)C(C)C`, the EC50 came to 0.003 nM in the data set with Hepatitis C virus [1]; 0.26 nM with Hepatitis C virus [3]; 0.004 nM in the data set on Hepatitis C virus [4]; 35 nM with Hepatitis C virus [5]; 0.004 nM with Hepatitis C virus [6]. Also, the half-life in data set [2] is 6.6 h. This compound showed an AUC in the data set on Rattus norvegicus of 3.2 uM.hr/ml.

`COC(=O)N[C@H](C(=O)N1C[Si](C)(C)C[C@H]1c1ncc(-c2ccc(-c3ccc4c(ccc5nc([C@@H]6CC(F)(F)CN6C(=O)[C@@H](NC(=O)OC)C(C)C)[nH]c54)c3)cc2)[nH]1)C(C)C` showed a half-life in [2] of 6.7 h. In the data set with Hepatitis C virus [5], the EC50 is 65 nM. This compound had an AUC in the data set on Rattus norvegicus of 7.6 uM.hr/ml.

As to `COC(=O)N[C@H](C(=O)N1C[Si](C)(C)C[C@H]1c1ncc(-c2ccc(-c3ccc4c(ccc5nc([C@@H]6CCCN6C(=O)[C@@H](NC(=O)OC)C(C)C)[nH]c54)c3)cc2)[nH]1)C(C)C`, the EC50 in the data set on Hepatitis C virus [1] worked out at 0.014 nM; in the data set on Hepatitis C virus [3], 0.05 nM; in the data set on Hepatitis C virus [4], 0.02 nM; in the data set with Hepatitis C virus [5], 95 nM; in the data set with Hepatitis C virus [6], 0.003 nM.

For the compound `COC(=O)N[C@H](C(=O)N1CCC[C@H]1c1ncc(-c2ccc(-c3cc4cc(-c5cnc([C@@H]6CCCN6C(=O)[C@@H](NC(=O)OC)C(C)C)[nH]5)ccc4o3)cc2)[nH]1)C(C)C`, the EC50 with Hepatitis C virus [7] is 286 nM; in the data set on Hepatitis C virus [1], 0.01 nM; in the data set with Hepatitis C virus [3], 4 nM; in the data set with Hepatitis C virus [4], 0.4 nM; in the data set with Hepatitis C virus [5], 24 nM; in [8], 3300 nM. The compound also came in with an EC50 in the data set with Hepatitis C virus [6] of 0.001 nM.

With `COC(=O)N[C@H](C(=O)N1CC(F)(F)C[C@H]1c1ncc(-c2ccc(-c3ccc4c(ccc5nc([C@@H]6C[Si](C)(C)CN6C(=O)[C@@H](NC(=O)OC)C(C)C)[nH]c54)c3)cc2)[nH]1)C(C)C`, the EC50 in the data set on Hepatitis C virus [1] was 0.015 nM; with Hepatitis C virus [5] it was 46 nM. Further, the AUC in the data set on Rattus norvegicus was 5 uM.hr/ml.
